Data published in US10508092B2, “Synthesis of novel analogs of diptoindonesin G, compounds formed thereby, and pharmaceutical compositions containing them” (Wisconsin Alumni Research Foundation, priority 2016, dated 2019).
“Also recorded” adds a separate entry of the source.

What was measured:
[1] = test system: mouse splenic lymphocytes (T cells); settings: concanavalin A induced proliferation of mouse splenic lymphocytes; cited from earlier work
[2] = test system: estrogen receptor α (ERα); assay: Western blot of ERα levels in MCF7 cells; assay type: cell-based, human
Description: FIGS. 1A, 1B, and 1C together depict the biological activity of the subject compounds on estrogen receptor α (ERα) levels in human breast cancer cells.
(§1) The biological activity of these four analogs were then compared with the parent compound Dip G following our previous protocol (Zhao et al., supra). See FIGS. 1A, 1B, 1C, 2A, 2B, and 2C. Cells were treated with each compound at 10 μM concentration in order to evaluate how well each modified the stability of ERα and ERβ.
(§2) MCF7 cells were treated with Dip G and analogs for 24 hours before harvesting. Hs578T-tet-on-ERβ cells (ATCC HTB-126; American Type Culture Collection, Manassas, Va.) were treated with doxycycline for 24 hours to induce ERβ expression. Then the cells were treated with compounds for 5 days before harvesting. 15 μg of total cell lysates were resolved on SDS-PAGE and Western blot analyses were performed as previously described using ERα antibody (HC-20, Santa Cruz Biotechnology, Inc., Dallas, Tex.) and anti-FLAG antibody (F7425, Sigma-Aldrich Co., LLC, St. Louis, Mo.) for ERβ.^3

CHIP ubiquitin E3 ligase = biological target: T1, CHIP ubiquitin E3 ligase (Homo sapiens, UniProt Q9UNE7); assay: Binding to CHIP ubiquitin E3 ligase
T1 sequence (Q9UNE7 1-303): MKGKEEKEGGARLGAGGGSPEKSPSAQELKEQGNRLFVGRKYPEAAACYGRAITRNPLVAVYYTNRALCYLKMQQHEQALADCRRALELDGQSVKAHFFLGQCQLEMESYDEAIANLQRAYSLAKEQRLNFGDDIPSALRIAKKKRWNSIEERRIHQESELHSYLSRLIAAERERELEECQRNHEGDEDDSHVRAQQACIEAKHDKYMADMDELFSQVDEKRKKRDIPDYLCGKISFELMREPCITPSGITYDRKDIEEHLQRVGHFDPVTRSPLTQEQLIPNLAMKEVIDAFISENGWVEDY

ERα = biological target: T2, ERα (Homo sapiens, UniProt P03372); assay: Direct binding to ERα
T2 sequence (P03372 1-595): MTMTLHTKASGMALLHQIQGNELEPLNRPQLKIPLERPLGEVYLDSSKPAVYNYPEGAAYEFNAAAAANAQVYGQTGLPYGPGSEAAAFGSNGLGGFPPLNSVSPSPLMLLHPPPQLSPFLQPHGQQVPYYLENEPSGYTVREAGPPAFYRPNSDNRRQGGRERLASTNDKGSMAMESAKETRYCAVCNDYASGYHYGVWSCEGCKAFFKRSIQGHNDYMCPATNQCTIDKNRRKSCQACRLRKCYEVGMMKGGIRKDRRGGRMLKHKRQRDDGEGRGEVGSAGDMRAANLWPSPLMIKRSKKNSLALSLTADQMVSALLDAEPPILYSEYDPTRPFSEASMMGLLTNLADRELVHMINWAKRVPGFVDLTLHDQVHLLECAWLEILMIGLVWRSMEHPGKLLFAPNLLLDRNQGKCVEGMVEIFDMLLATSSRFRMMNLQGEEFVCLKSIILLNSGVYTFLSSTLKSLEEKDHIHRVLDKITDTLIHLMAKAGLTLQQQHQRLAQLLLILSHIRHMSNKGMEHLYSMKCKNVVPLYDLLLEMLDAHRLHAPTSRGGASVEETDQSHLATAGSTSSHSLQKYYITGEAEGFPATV

[3] = test system: murine leukemia P-388 cells; settings: cited from earlier work
ERα Y537S = assay: ERE-Luciferase activity of ERα Y537S in T47D cells; assay type: cell-based, human
Description: (§3) FIG. 6 is a histogram depicting Dip G- and Dip G-D1-inhibited E2-dependent ERE-Luciferase activities of wildtype ERα or ERα Y537S in T47D cells. Cells were co-treated with 10 nM E2 and Dip G or Dip G-D1 (10 μM) for 24 hrs. The experiments were performed in triplicate. Data are represented as mean±SD, n=3.
See Merenbakh-Lamin, K., Ben-Baruch, N., Yeheskel, A., Dvir, A., Soussan-Gutman, L., Jeselsohn, R., Yelensky, R., Brown, M., Miller, V. A., Sarid, D. et al. (2013) “D538G mutation in estrogen receptor-alpha: A novel mechanism for acquired endocrine resistance in breast cancer,” Cancer research, 73:6856-6864 and Jeselsohn, R., Yelensky, R., Buchwalter, G., Frampton, G., Meric-Bernstam, F., Gonzalez-Angulo, A. M., Ferrer-Lozano, J., Perez-Fidalgo, J. A., Cristofanilli, M., Gomez, H. et al. (2014) “Emergence of constitutively active estrogen receptor-alpha mutations in pretreated advanced estrogen receptor-positive breast cancer,” Clinical cancer research: an official journal of the American Association for Cancer Research, 20:1757-1767. Using these ERα mutant expressing cell lines, we will: (a) compare ERα degradation rate induced by fulvestrant, Dip G and Dip G-D1 using ELISA assay as shown in FIG. 5; (b) measure IC50 of Dip G and Dip G analogues to inhibit ERα transcriptional activity in luciferase assay.

[4] = test system: estrogen receptor β (ERβ); assay: Western blot of FLAG-ERβ levels in Hs578T-ERβLuc Dox-inducible cells; assay type: cell-based, human; settings: Hs578T-ERβLuc Dox-inducible line, 10 μM, 5 days, Western blot (anti-FLAG)
Description: FIGS. 2A, 2B, and 2C together depict the biological activity of the subject compounds on estrogen receptor β (ERβ) levels in human breast cancer cells.
as §1, §2

[5] = Pharmacokinetics (plasma concentration by HPLC and LC/MS) in mice; assay type: in vivo; settings: mouse
wildtype ERα = assay: ERE-Luciferase activity of wildtype ERα in T47D cells; assay type: cell-based, human; settings: co-treated with 10 nM E2, 10 μM, 24 hrs
Description: as §3

## O=C1c2c(O)cc(O)cc2-c2c(-c3ccc(O)cc3)oc3cc(O)cc1c23 [Dip G, diptoindonesin G]
[1]
  immunosuppressant activity: immunosuppressant activity
[2]; 10 μM, compared to untreated cells, gel blot FIG. 4
  amount of endogenous ERα in MCF7 cells: degrades endogenous ERα; also recorded: greatly decreased
[2]; MCF7 cells, 10 μM, 24 hours, Western blot
  ERα stability: decreased ERα stability with the largest change
[2]; MCF7 cells, FIG. 4
  endogenous ERα protein levels: less than 20%
CHIP ubiquitin E3 ligase
  binding to CHIP ubiquitin E3 ligase: binds
ERα
  direct binding to ERα: does not directly bind
[3]
  anti-proliferation effect: anti-proliferation effect
ERα Y537S; T47D cells, co-treated with 10 nM E2, 10 μM, 24 hrs
  E2-dependent ERE-Luciferase activity of ERα Y537S: inhibited
ERα Y537S; T47D expressing ERα Y537S, preliminary data
  ligand-independent transcription activity of ERα Y537S mutant: can be inhibited
[4]
  ERβ stability: strongly stabilized
[5]
  half-life: 1 h
Wildtype ERα
  E2-dependent ERE-Luciferase activity of wildtype ERα: inhibited
